Source: patent US20060269579A1, “Compositions for treating osteoarthritis” (Musculoskeletal Research LLC, priority 2005, published 2006)

Assays:
[1] = tested on: synovial lining cells; details: human
[2] = biological target: connexin 43 (Homo sapiens, UniProt P17302); details: Leybaert et al. 2003; cited from earlier work
[3] = tested on: effect of IL-1 on synovial cells; details: cited from earlier work

Sequence of connexin 43 (P17302 2-382 limits assumed): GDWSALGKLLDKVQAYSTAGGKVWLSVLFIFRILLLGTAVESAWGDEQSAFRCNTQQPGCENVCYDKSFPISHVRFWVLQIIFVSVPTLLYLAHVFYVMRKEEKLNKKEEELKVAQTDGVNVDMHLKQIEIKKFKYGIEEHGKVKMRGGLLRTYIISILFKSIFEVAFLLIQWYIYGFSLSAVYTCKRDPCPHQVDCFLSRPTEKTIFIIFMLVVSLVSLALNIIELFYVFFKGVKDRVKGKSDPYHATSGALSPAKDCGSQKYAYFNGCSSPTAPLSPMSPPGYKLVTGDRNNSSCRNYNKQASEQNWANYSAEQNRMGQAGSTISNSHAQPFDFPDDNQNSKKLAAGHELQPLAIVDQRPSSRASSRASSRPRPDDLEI

Compound	concentration in compositions that must not be exceeded [1]	total dose that must not be exceeded [1]	block of connexin 43 [2]	interference with the effect of IL-1 on synovial cells [3]
CCN(CC)CCNC(=O)c1ccc(N)cc1 [procainamide]	≤ 2000 µg/mL	≤ 2.0 mg	–	–
VCYDKSFPISHVR [synthetic tridecapeptide, connexin 43 residue numbers 63-75, mimetic peptide]	–	–	able to block connexin 43	–
SRPTEKTIFII [undecapeptide, connexin 43 residue numbers 204-214, mimetic peptide]	–	–	able to block connexin 43	–
COc1ccc(CCN(C)CCCC(C#N)(c2ccc(OC)c(OC)c2)C(C)C)cc1OC (stereo not drawn) [verapamil]	≤ 2000 µg/mL	≤ 2.0 mg	–	capable of interfering with the effect of IL-1 on synovial cells
COC(=O)C1=C(C)NC(C)=C(C(=O)OC)C1c1ccccc1[N+](=O)[O-] [nifedipine]	≤ 2000 µg/mL	≤ 2.0 mg	–	–
